Test results: patent US20140296263A1, “SUBSTITUTED XANTHINE DERIVATIVES” (CONCERT PHARMACEUTICALS, INC., priority 2011, published 2014)
pIC50: −log10 of the molar value.

Experiments:
TNF-α = TNF-α inhibition assay in LPS-stimulated whole blood; format: cell-based, human; conditions: LPS-induced TNF-α in whole blood, potency relative to compound 401, FIG. 1
Procedure: Whole blood (sodium heparin vacutainer) was obtained from two normal, healthy donors from Research Blood Components, Boston, Mass. For each donor sample, two duplicate assays were performed according to the following procedure. Blood was diluted 1:1 with Opti-MEM® Reduced Serum Medium (Invitrogen) and 100 μl of diluted blood was added to wells of a 96-well plate. The test compounds were serially diluted in Opti-MEM® to create a dose-response. The resulting diluted solutions (50 μl) were then added to the wells containing diluted blood and the mixture was incubated for 15 minutes at 37° C., 5% CO2. Lipopolysaccharide (LPS) strain 113:H10 (obtained from Associates of Cape Cod #E0005) was prepared at a 4× concentration and 50 μl of 4 ng/ml solution was added to the blood to achieve a final concentration of 1 ng/ml. Control wells contained diluted blood and 100 μl Opti-MEM® (negative control) or 50 μl Opti-MEM® plus 50 μl LPS (positive control). Plates were then incubated for 24 h at 37° C., 5% CO2. After incubation, diluted plasma was harvested by centrifugation at 3000 RPM for 2 minutes to pellet the blood cells. Supernatant (diluted plasma) was then transferred into a clean 96-well plate. The diluted plasma was further diluted 1:10 with ELISA reagent diluents and the TNF-α level for each compound was measured following manufacturer's instructions for the DuoSet® ELISAs (R & D Systems). The IC50 value for the compound was calculated using commercially available statistics software and the average IC50 values from the two donors was calculated. The potency of the compound relative to the potency of compound 401 was obtained by dividing the IC50 value of compound 401 by the IC50 value of the compound.

[1] = tested on: reactive oxygen species (ROS); experiment: ROS inhibition assay in whole blood (neutrophils, DHR-123 flow cytometry); format: cell-based, human; conditions: fMLP or PMA stimulated whole blood, potency relative to compound 401, FIG. 1
Procedure: Whole blood (sodium heparin vacutainer) was obtained from two normal, healthy donors from Research Blood Components, Boston, Mass. For each donor sample, two duplicate assays were performed according to the following procedure. Whole blood (100 μl) was added to wells of a 96 deep-well plate. Compounds were serially diluted in Hanks Balanced Salt Solution (HBSS) to achieve a desired dose-response. The resulting diluted solutions (100 μl) were added to the whole blood samples, mixed gently, and incubated for 30 minutes at 37° C., 5% CO2. The blood was then stimulated by addition of Formyl-Methionyl-Leucyl-Phenylalanine (fMLP) (1 μM final concentration) or phorbol myristate acetate (PMA) (10 ng/ml final concentration) and was further incubated for 20 minutes at 37° C., 5% CO2. Dihydrorhodamine 123 (DHR-123) reagent (Invitrogen), a cell-permeable probe that becomes highly fluorescent when oxidized, was then added to the blood at a final concentration of 0.5 μM and incubated for another 20 minutes at 37° C., 5% CO2. The red blood cells were then lysed in 1 ml ammonium chloride-potassium (ACK) lysis buffer (Invitrogen) for 10 minutes at room temperature. The remaining leukocytes (including the neutrophils) were washed once in HBSS and resuspended in HBSS/0.5% paraformaldehyde. To quantify intracellular ROS production, the fluorescence of the oxidized form of DHR-123, which is a fluorescent compound, was measured. The level of oxidized DHR-123 in neutrophils was assessed for each sample by measuring cell fluorescence on a flow cytometer. The IC50 value was calculated using commercially available statistics software and the average IC50 values from the two donors was calculated. The potency of the compound relative to the potency of compound 401 was obtained by dividing the IC50 value of compound 401 by the IC50 value of the compound.

MCP-1 = MCP-1 assay (blood donors); format: cell-based, human; conditions: for pIC50: Homo sapiens
Text: MCP-1 is a known pro-inflammatory cytokine that plays important roles in various diseases.

IFN-gamma = IFN-gamma assay (blood donors); format: cell-based, human; conditions: for pIC50: Homo sapiens
[2] = pentoxifylline and its metabolites; cited from earlier work

| Structure (SMILES) | activity (relative potency) in the TNF-α inhibition assay (TNF-α) | activity (relative potency) in the ROS inhibition assay [1] | pIC50 (MCP-1; Donor 1) | pIC50 (MCP-1; Donor 2) | pIC50 (IFN-gamma; Donor I) | pIC50 (IFN-gamma; Donor II) | time to peak plasma levels [2] | activity (relative potency) in the TNF-α inhibition assay (TNF-α; listed as M-2) | activity (relative potency) in the ROS inhibition assay ([1]; listed as M-2) | MCP-1 IC50 values compared with Compounds 400 and 401 (MCP-1; both donors of Table 2) | IFN-gamma IC50 values compared with Compounds 400 and 401 (IFN-gamma; one donor) | IFN-gamma IC50 values compared with Compounds 400 and 401 (IFN-gamma; second donor) |
| --- | --- | --- | --- | --- | --- | --- | --- | --- | --- | --- | --- | --- |
| CC(=O)CCCCn1c(=O)c2c(ncn2C)n(C)c1=O [Compound 400, 1-(5-oxohexyl)-3,7-dimethylxanthine] | comparable activity | comparable activity | 4.10 | 4.10 | 4.11 | 4.20 | within one hour |  |  |  |  |  |
| CC(O)C(O)CCCn1c(=O)c2c(ncn2C)n(C)c1=O (stereo not drawn) [Compound M-3] | significantly lower activity | significantly lower activity |  |  |  |  |  |  |  |  |  |  |
| Cn1cnc2c1c(=O)n(CCCCC(=O)O)c(=O)n2C [Compound M-4] | significantly lower activity | significantly lower activity |  |  |  |  |  |  |  |  |  |  |
| Cn1cnc2c1c(=O)n(CCCC(=O)O)c(=O)n2C [Compound M-5] | significantly lower activity | significantly lower activity |  |  |  |  |  |  |  |  |  |  |
| Cn1cnc2c1c(=O)n(CCCCC(O)CO)c(=O)n2C (stereo not drawn) [Compound 308, 1-(5,6-Dihydroxyhexyl)-3,7-dimethyl-1H-purine-2,6(3H,7H)-dione] | comparable activity | comparable activity | 3.71 | 3.90 | 4.14 | 3.92 |  | active | active | slightly higher | slightly higher | very similar |
